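Interpolation was linear, between the two tested concentrations surrounding the appropriate level; five concentrations were tested over 48 hours in 96-well plates. GI50 is the concentration that inhibits growth by half. At the TGI there is no net growth.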
Key:
Experiment in all cases: NCI-60 cell line screen, 48 h
[1] = tested on: SNB-19 CNS
[2] = tested on: MALME-3M melanoma
[3] = tested on: TK-10 renal
[4] = tested on: CAKI-1 renal
[5] = tested on: OVCAR-8 ovarian
[6] = tested on: HOP-62 NSCLC
[7] = tested on: A498 renal
[8] = tested on: NCI-H460 lung
[9] = tested on: SW-620 colon
[10] = tested on: A549 NSCLC
[11] = tested on: ACHN renal
[12] = tested on: NCI-H522 lung
[13] = tested on: MCF7 breast
[14] = tested on: SF-268 CNS
[15] = tested on: M14 melanoma
[16] = tested on: HT29 colon
[17] = tested on: COLO 205 colon
[18] = tested on: K-562 leukemia
[19] = tested on: IGROV1 ovarian
[20] = tested on: U251 CNS
[21] = tested on: 786-0 renal
[22] = tested on: OVCAR-4 ovarian
[23] = tested on: PC-3 prostate
[24] = tested on: OVCAR-5 ovarian
[25] = tested on: SF-539 CNS
[26] = tested on: OVCAR-3 ovarian
[27] = tested on: SNB-75 CNS
[28] = tested on: LOX IMVI melanoma
[29] = tested on: MOLT-4 leukemia
[30] = tested on: SF-295 CNS
[31] = tested on: BT-549 breast
[32] = tested on: KM12 colon
[33] = tested on: SK-MEL-5 melanoma
[34] = tested on: EKVX NSCLC
[35] = tested on: SK-MEL-2 melanoma
[36] = tested on: RXF 393 renal
[37] = tested on: NCI-H23 lung
[38] = tested on: NCI/ADR-RES ovarian
[39] = tested on: T-47D breast
[40] = tested on: UO-31 renal
[41] = tested on: UACC-62 melanoma
[42] = tested on: MDA-MB-231 breast
[43] = tested on: HCT-116 colon
[44] = tested on: SK-OV-3 ovarian
[45] = tested on: DU-145 prostate
[46] = tested on: HCC-2998 colon
[47] = tested on: CCRF-CEM leukemia
[48] = tested on: HCT-15 colon
[49] = tested on: UACC-257 melanoma
[50] = tested on: MDA-MB-435
[51] = tested on: NCI-H226 lung
[52] = tested on: SK-MEL-28 melanoma
[53] = tested on: SN12C renal
[54] = tested on: HS 578T breast
[55] = tested on: HL-60(TB) leukemia
[56] = tested on: RPMI-8226 leukemia
[57] = tested on: HOP-92 NSCLC

Compound: N#Cc1ccccc1C#C/C=C\C#Cc1ccc(OCCCNC(=O)c2cc3ccccc3[nH]2)cc1
- GI50 [1]: 16.5 µM
- TGI [1]: 39.7 µM
- GI50 [2]: 14 µM
- TGI [2]: 34.8 µM
- GI50 [3]: 15.7 µM
- TGI [3]: 34 µM
- GI50 [4]: 20.2 µM
- TGI [4]: 48 µM
- GI50 [5]: 16.2 µM
- TGI [5]: 36.9 µM
- GI50 [6]: 14.9 µM
- TGI [6]: 31.1 µM
- GI50 [7]: 16.1 µM
- TGI [7]: 36.5 µM
- GI50 [8]: 33.9 µM
- TGI [8]: > 100 µM
- GI50 [9]: 30.2 µM
- TGI [9]: > 100 µM
- GI50 [10]: 22.9 µM
- TGI [10]: > 100 µM
- GI50 [11]: 16.9 µM
- TGI [11]: 34.9 µM
- GI50 [12]: 13.9 µM
- TGI [12]: 32.3 µM
- GI50 [13]: 33.4 µM
- TGI [13]: > 100 µM
- GI50 [14]: 30.6 µM
- TGI [14]: > 100 µM
- GI50 [15]: 21.8 µM
- TGI [15]: > 100 µM
- GI50 [16]: 30.9 µM
- TGI [16]: > 100 µM
- GI50 [17]: 15.9 µM
- TGI [17]: 44.6 µM
- GI50 [18]: 3.2 µM
- TGI [18]: 19 µM
- GI50 [19]: 14.1 µM
- TGI [19]: 33.7 µM
- GI50 [20]: 10.7 µM
- TGI [20]: 22.5 µM
- GI50 [21]: 16.1 µM
- TGI [21]: 40.5 µM
- GI50 [22]: 59 µM
- TGI [22]: > 100 µM
- GI50 [23]: 14.7 µM
- TGI [23]: 45.2 µM
- GI50 [24]: 21.3 µM
- TGI [24]: 48.4 µM
- GI50 [25]: 15.4 µM
- TGI [25]: 35.6 µM
- GI50 [26]: 18.2 µM
- TGI [26]: 41.4 µM
- GI50 [27]: 17.9 µM
- TGI [27]: 42.6 µM
- GI50 [28]: 11.5 µM
- TGI [28]: 23.7 µM
- GI50 [29]: 5.23 µM
- TGI [29]: 23.4 µM
- GI50 [30]: 16.1 µM
- TGI [30]: 34.6 µM
- GI50 [31]: 20.2 µM
- TGI [31]: > 100 µM
- GI50 [32]: 16.3 µM
- TGI [32]: 44.2 µM
- GI50 [33]: 4.24 µM
- TGI [33]: 20.2 µM
- GI50 [34]: 17.1 µM
- TGI [34]: 96.6 µM
- GI50 [35]: 20.5 µM
- TGI [35]: 44.6 µM
- GI50 [36]: 21.4 µM
- TGI [36]: 52.2 µM
- GI50 [37]: 24.2 µM
- TGI [37]: 98.2 µM
- GI50 [38]: 23.5 µM
- TGI [38]: > 100 µM
- GI50 [39]: 12.4 µM
- TGI [39]: 29.7 µM
- GI50 [40]: 17 µM
- TGI [40]: 35.4 µM
- GI50 [41]: 13.7 µM
- TGI [41]: 28.4 µM
- GI50 [42]: 13.3 µM
- TGI [42]: 28.1 µM
- GI50 [43]: 14.8 µM
- TGI [43]: 39.6 µM
- GI50 [44]: 19.3 µM
- TGI [44]: 54.5 µM
- GI50 [45]: 19.4 µM
- TGI [45]: 78.9 µM
- GI50 [46]: 74.9 µM
- TGI [46]: > 100 µM
- GI50 [47]: 4.6 µM
- TGI [47]: 44.3 µM
- GI50 [48]: 26.2 µM
- TGI [48]: > 100 µM
- GI50 [49]: 23 µM
- TGI [49]: > 100 µM
- GI50 [50]: 19 µM
- TGI [50]: 42.7 µM
- GI50 [51]: 13.8 µM
- TGI [51]: 31.9 µM
- GI50 [52]: 32 µM
- TGI [52]: > 100 µM

Compound: CCSC1=N/C(=C\c2ccccc2O)C(Nc2ccc(C)cc2)=N1
- TGI [1]: > 100 µM
- TGI [2]: > 100 µM
- TGI [3]: > 100 µM
- TGI [4]: > 100 µM
- TGI [5]: > 100 µM
- TGI [6]: > 100 µM
- TGI [7]: > 100 µM
- TGI [8]: > 100 µM
- TGI [9]: > 100 µM
- TGI [10]: > 100 µM
- TGI [11]: > 100 µM
- TGI [12]: 94.4 µM
- TGI [14]: > 100 µM
- TGI [15]: > 100 µM
- TGI [16]: > 100 µM
- TGI [17]: > 100 µM
- TGI [18]: > 100 µM
- TGI [19]: > 100 µM
- TGI [20]: > 100 µM
- TGI [21]: > 100 µM
- TGI [23]: > 100 µM
- TGI [24]: > 100 µM
- TGI [25]: > 100 µM
- TGI [26]: 67.3 µM
- TGI [27]: > 100 µM
- TGI [28]: > 100 µM
- TGI [29]: > 100 µM
- TGI [30]: > 100 µM
- TGI [31]: > 100 µM
- TGI [32]: > 100 µM
- TGI [33]: > 100 µM
- TGI [34]: > 100 µM
- TGI [35]: > 100 µM
- TGI [36]: > 100 µM
- TGI [37]: > 100 µM
- TGI [53]: > 100 µM
- TGI [38]: > 100 µM
- TGI [39]: > 100 µM
- TGI [40]: > 100 µM
- TGI [41]: > 100 µM
- TGI [42]: > 100 µM
- TGI [54]: > 100 µM
- TGI [43]: > 100 µM
- TGI [44]: > 100 µM
- TGI [55]: > 100 µM
- TGI [45]: > 100 µM
- TGI [47]: > 100 µM
- TGI [48]: > 100 µM
- TGI [49]: > 100 µM
- TGI [50]: > 100 µM
- TGI [51]: > 100 µM
- TGI [56]: > 100 µM
- TGI [57]: > 100 µM
- TGI [52]: > 100 µM
